Assay results as given in US20250006334A1, “SIROLIMUS PHARMACOKINETICS GUIDED AND MODEL INFORMED PRECISION DOSING” (Children's Hospital Medical Center, priority 2023, published 2025).

Test: Observed sirolimus trough blood concentration in infant patients under model-informed precision dosing
Assay type: in vivo, human
From the text: After therapy has been initiated using the initial dose, data may be collected 103 on the impact of the therapy. This may be done, for example, by, 7-14 days after the start of therapy, taking a pre-dose trough blood sample which could then be sent to a lab to determine a sirolimus blood concentration. Alternatively, in some cases additional samples may be taken. For example, in a case where an abbreviated area under the curve PK consult is ordered, data collection 103 may include taking three whole blood samples: a first sample taken 15-30 minutes before a dose, a second sample taken 45-75 minutes after the dose, and a third sample taken 150-210 minutes after the dose. A laboratory could then process the sample(s), and the sirolimus concentration could be reported back. For example, in a case where an application for recommending individualized sirolimus doses was implemented based on this disclosure, the lab could report the results back through an API exposed by a web portal supported by the application, or could send the results back through an external communication channel (e.g., secure email) to the user of the application, and that user could then input the results to the application himself or herself.
However the model refinement 105 is performed, once a refined model is available, it may be applied 106 to determine a personalized dose for the patient. […]

SMILES: CO[C@H]1C[C@@H]2CC[C@@H](C)[C@@](O)(O2)C(=O)C(=O)N2CCCC[C@H]2C(=O)O[C@H]([C@H](C)C[C@@H]2CC[C@@H](O)[C@H](OC)C2)CC(=O)[C@H](C)/C=C(\C)[C@@H](O)[C@@H](OC)C(=O)[C@H](C)C[C@H](C)/C=C/C=C/C=C/1C [sirolimus]
- observed sirolimus trough concentration at six months of age (FIG. 2, infant who started sirolimus at 2 months of age, doses predicted from weight, PMA and concentration measured at three months, target range 10-12 ng/mL): 9.3 ng/mL
- observed sirolimus trough concentration at 6 months (FIG. 3, prediction from age 4 months to 6 months based on concentration at 4 months, weight and PMA, target trough range 10-12 ng/mL): 10.5 ng/mL
